Holding throughout (type): cell-based
Assay [1] has as its target T1, hGIPR (Homo sapiens, UniProt P48546).
T1 sequence (P48546 22-466): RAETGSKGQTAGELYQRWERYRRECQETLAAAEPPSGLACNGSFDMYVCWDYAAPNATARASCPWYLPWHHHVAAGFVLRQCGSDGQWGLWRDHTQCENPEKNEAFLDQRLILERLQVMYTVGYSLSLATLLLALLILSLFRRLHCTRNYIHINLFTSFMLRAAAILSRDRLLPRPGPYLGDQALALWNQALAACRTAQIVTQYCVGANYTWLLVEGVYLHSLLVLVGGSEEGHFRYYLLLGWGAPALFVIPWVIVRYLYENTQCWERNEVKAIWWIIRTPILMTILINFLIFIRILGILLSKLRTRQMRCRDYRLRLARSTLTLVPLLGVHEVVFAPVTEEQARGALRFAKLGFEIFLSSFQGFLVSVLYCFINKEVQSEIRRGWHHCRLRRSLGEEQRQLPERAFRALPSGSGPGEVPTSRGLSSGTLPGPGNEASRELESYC
Briefly: Functional cAMP activity in the presence of 1% HSA. Conditions: read-out: cAMP Rel EC50, hGIPR.

The target of a further assay is hGcgR (Homo sapiens, UniProt P47871). Briefly: Functional cAMP activation in the presence of 0.1% casein (no HSA). As to conditions: read-out: Relative cAMP EC50, hGcgR.
Sequence of hGcgR (P47871 26-477): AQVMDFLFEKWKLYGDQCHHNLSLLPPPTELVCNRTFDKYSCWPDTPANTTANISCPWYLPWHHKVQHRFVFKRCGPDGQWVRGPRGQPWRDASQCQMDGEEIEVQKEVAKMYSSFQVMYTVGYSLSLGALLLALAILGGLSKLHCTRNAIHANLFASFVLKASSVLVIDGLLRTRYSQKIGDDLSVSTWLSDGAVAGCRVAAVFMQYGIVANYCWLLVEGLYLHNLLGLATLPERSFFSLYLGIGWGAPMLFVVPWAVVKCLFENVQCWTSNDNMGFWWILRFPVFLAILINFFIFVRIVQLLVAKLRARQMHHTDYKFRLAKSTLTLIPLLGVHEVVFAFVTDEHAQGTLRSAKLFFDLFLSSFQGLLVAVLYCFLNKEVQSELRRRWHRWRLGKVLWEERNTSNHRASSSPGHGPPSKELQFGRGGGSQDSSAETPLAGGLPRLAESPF
Assay [2] deals with T1, hGIPR. The assay is described as above. Conditions: read-out: Relative cAMP EC50, hGIPR.
For assay [3], the target named is T2, hGLP-1R (Homo sapiens, UniProt P43220). In words: Functional cAMP activity in the presence of 1% HSA. As to conditions: read-out: cAMP Rel EC50, hGLP-1R.
T2 sequence (P43220 24-463): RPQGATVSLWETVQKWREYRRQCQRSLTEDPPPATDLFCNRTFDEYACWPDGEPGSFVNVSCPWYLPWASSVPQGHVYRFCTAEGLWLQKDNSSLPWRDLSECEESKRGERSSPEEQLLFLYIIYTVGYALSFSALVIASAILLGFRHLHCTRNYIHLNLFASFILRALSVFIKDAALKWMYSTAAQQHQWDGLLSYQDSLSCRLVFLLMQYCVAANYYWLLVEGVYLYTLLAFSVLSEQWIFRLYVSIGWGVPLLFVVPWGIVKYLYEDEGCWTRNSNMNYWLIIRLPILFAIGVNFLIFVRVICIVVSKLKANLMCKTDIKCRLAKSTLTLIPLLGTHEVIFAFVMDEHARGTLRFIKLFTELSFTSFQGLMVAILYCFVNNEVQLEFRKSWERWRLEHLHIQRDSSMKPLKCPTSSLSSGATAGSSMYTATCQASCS
The target in assay [4] is T2, hGLP-1R. In words: Functional cAMP activation in the presence of 0.1% casein (no HSA). Conditions: read-out: Relative cAMP EC50, hGLP-1R.
For the next assay, the target named is human GcgR (Homo sapiens, UniProt P47871). Briefly: Functional cAMP activity in the presence of 1% HSA. Conditions: read-out: cAMP Rel EC50, hGcgR.
Sequence of human GcgR (P47871 26-477): as the sequence (P47871 26-477) above
Where [5] appears, read: HEK-293 clonal cell line, in the presence of 1% HSA, geometric mean of relative EC50.
Where [6] appears, read: in the presence of 0.1% casein (no HSA), geometric mean.
Setting [7] is: 0.1% casein, no HSA, geometric mean.
The mark [8] stands for this setting: HEK-293 clonal cell line, 1% HSA, geometric mean of relative EC50.
[9] abbreviates: in the presence of 0.1% casein (no HSA), geometric mean of relative EC50.

Read-outs that look alike come from different tables or passages of the source. Starred links: 1 amine or outer side, 2 acyl side, 3 side chain; linkers in the order of their positions; H or OH if unused. Non-standard residues stand in square brackets, D forms with d. Groups on a side chain read outwards from the residue. No end group written: not given here. *: point of attachment. C20 diacid = O=C(O)CCCCCCCCCCCCCCCCCCC(=O)*; C18 diacid = O=C(O)CCCCCCCCCCCCCCCCC(=O)*; αMePhe(2-F) = C[C@](N)(Cc1ccccc1F)C(=O)O; γGlu = O=C(O)[C@H](CCC(=O)[*:2])N[*:1]; αMe4Pal = C[C@](N)(Cc1ccncc1)C(=O)O; αMeY = C[C@](N)(Cc1ccc(O)cc1)C(=O)O; αMeF = C[C@](N)(Cc1ccccc1)C(=O)O; 4Pal = N[C@@H](Cc1ccncc1)C(=O)O; αMeL = CC(C)C[C@](C)(N)C(=O)O; αMeS = C[C@](N)(CO)C(=O)O; Orn = NCCC[C@H](N)C(=O)O; AEEA = NCCOCCOCC(=O)O; Aib = CC(C)(N)C(=O)O
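For Relative cAMP EC50, hGIPR in this document: intracellular cAMP rise after 30 min at 37 °C read by HTRF against a standard curve, scaled between buffer alone (0%) and top control ligand concentration (100%), four-parameter fit.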
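For Relative cAMP EC50, hGLP-1R in this document: intracellular cAMP rise after 30 min at 37 °C read by HTRF, normalized between buffer only (0%) and maximal control ligand (100%), four-parameter variable-slope fit.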
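For Relative cAMP EC50, hGcgR in this document: intracellular cAMP rise after 30 min at 37 °C, read by HTRF against a cAMP standard curve, scaled from buffer only (0%) to maximal control ligand response (100%).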

What is called EC50 is the concentration at which the effect is half-maximal. Consider “H-Y[Aib]QGTFTSDFS[Orn][αMeL]LD[Orn]K([γGlu-γGlu-C18 diacid])AQ[Aib]AFIEYLLEGGPSSGAPPPGGSEE-NH2 [Example 1048]”, for which the EC50 at hGIPR [1] (setting [5]) was found to be 108 nM; on hGcgR (setting [6]), 6.9 nM; on hGIPR [2] (setting [6]) it was 0.356 nM; on hGLP-1R [3] (setting [5]), 1900 nM; on hGLP-1R [4] (setting [6]) it was 6.23 nM; on human GcgR (setting [5]), 1930 nM.
For the molecule “H-Y[Aib]QGT[αMePhe(2-F)]TSD[4Pal][αMeS]I[αMeL]LD[Orn]K([AEEA-γGlu-C18 diacid])AQ[αMe4Pal]EFI[dE][αMeY]LIEGGPPS[Aib][Orn]PPP[Orn]GGGE-NH2 [Example 1197]”, the EC50 is 0.639 nM on hGIPR [1]; 1.88 nM at hGcgR (setting [7]); 0.00666 nM at hGIPR [2] (setting [7]); 46.1 nM at hGLP-1R [3]; 0.407 nM on hGLP-1R [4] (setting [7]); 288 nM at human GcgR.
“H-Y[Aib]QGTFTSDFS[Orn][αMeL]LDKK([AEEA-γGlu-C18 diacid])AQ[Aib]AFIEYLLEGGPSSGAPPPGGSE-NH2 [Example 65]”: the EC50 at hGIPR [1] is 30.2 nM; at hGcgR (setting [6]) it was 6.49 nM; on hGIPR [2] (setting [6]), 0.739 nM; at hGLP-1R [3] it was 462 nM; at hGLP-1R [4] (setting [6]), 4.21 nM; at human GcgR, 808 nM.
With “H-Y[Aib]QGT[αMePhe(2-F)]TSD[4Pal][αMeS]I[αMeL]LD[Orn]K([AEEA-γGlu-γGlu-C18 diacid])AQ[αMe4Pal]EFI[dE][αMeY]LIEGGPSSGAPPPSGGGE-NH2 [Example 1180]”, the EC50 on hGIPR [1] was 0.341 nM; on hGcgR (setting [6]), 3.16 nM; on hGIPR [2] (setting [6]) it was 0.00602 nM; on hGLP-1R [3], 35.6 nM; on hGLP-1R [4] (setting [6]), 0.445 nM; on human GcgR it was 205 nM.
As to “H-Y[Aib]QGTFTSDFS[Orn][αMeL]LDKK([AEEA-γGlu-C20 diacid])AQ[Aib]AFIEYLLAGGPSSGAPPPSGSE-NH2 [Example 84]”, the EC50 is 57.4 nM at hGIPR [1]; 8.48 nM at hGcgR (setting [6]); 0.21 nM on hGIPR [2] (setting [6]); 701 nM on hGLP-1R [3]; 1.61 nM on hGLP-1R [4] (setting [6]); 2280 nM at human GcgR.
For “H-Y[Aib]QGT[αMePhe(2-F)]TSD[4Pal][αMeS]I[αMeL]LD[Orn]K([γGlu-γGlu-C18 diacid])AQ[Aib][Orn]FI[dE][αMeY]LAEGGPSSGEPPPSGEEE-NH2 [Example 592]”, the 50% effective concentration (EC50) at hGIPR [1] is 4.05 nM; on hGcgR it was 4.25 nM; at hGIPR [2], 0.0971 nM; on hGLP-1R [3], 55.6 nM; on hGLP-1R [4], 1.12 nM; on human GcgR it was 195 nM.
Regarding “H-Y[Aib]QGT[αMeF]TSD[4Pal][αMeS]I[αMeL]LD[Orn]K([AEEA-γGlu-C18 diacid])AQ[αMe4Pal]EFI[dE][αMeY]LIEGGPSSGEPPPSGSE-NH2 [Example 1167]”, the EC50 on hGIPR [1] turned out to be 1.22 nM; on hGcgR (setting [6]), 2.16 nM; at hGIPR [2] (setting [6]) it was 0.011 nM; at hGLP-1R [3] it was 89.2 nM; on hGLP-1R [4] (setting [6]) it was 0.636 nM; at human GcgR, 274 nM.
`CC[C@H](C)[C@H](NC(=O)[C@H](CC(C)C)NC(=O)[C@](C)(Cc1ccc(O)cc1)NC(=O)[C@@H](CCC(=O)O)NC(=O)[C@@H](NC(=O)[C@H](Cc1ccccc1)NC(=O)[C@H](CCC(=O)O)NC(=O)C(C)(C)NC(=O)[C@H](C)NC(=O)[C@H](C)NC(=O)[C@H](CCCCNC(=O)COCCOCCNC(=O)CC[C@H](NC(=O)CCCCCCCCCCCCCCCCC(=O)O)C(=O)O)NC(=O)[C@H](CCCN)NC(=O)[C@H](CC(=O)O)NC(=O)[C@H](CC(C)C)NC(=O)[C@](C)(CC(C)C)NC(=O)[C@@H](NC(=O)[C@](C)(CO)NC(=O)[C@H](Cc1ccncc1)NC(=O)[C@H](CC(=O)O)NC(=O)[C@H](CO)NC(=O)[C@@H](NC(=O)[C@](C)(Cc1ccccc1F)NC(=O)[C@@H](NC(=O)CNC(=O)[C@H](CCC(N)=O)NC(=O)C(C)(C)NC(=O)[C@@H](N)Cc1ccc(O)cc1)[C@@H](C)O)[C@@H](C)O)[C@@H](C)CC)[C@@H](C)CC)C(=O)N[C@@H](CCC(=O)O)C(=O)NCC(=O)NCC(=O)N1CCC[C@H]1C(=O)N[C@@H](CO)C(=O)N[C@@H](CO)C(=O)NCC(=O)N[C@@H](CCC(=O)O)C(=O)N1CCC[C@H]1C(=O)N1CCC[C@H]1C(=O)N1CCC[C@H]1C(=O)N[C@@H](CO)C(=O)NCC(=O)N[C@@H](CO)C(=O)N[C@H](CCC(=O)O)C(N)=O` [Example 720]: the half-maximal effective concentration (EC50) on hGIPR [1] (setting [8]) amounted to 1.02 nM; on hGcgR (setting [9]) it was 1.78 nM; on hGIPR [2] (setting [9]), 0.0103 nM; at hGLP-1R [3] (setting [8]) it was 28.3 nM; on hGLP-1R [4] (setting [9]), 0.245 nM; at human GcgR (setting [8]) it was 239 nM.
In the case of “H-Y[Aib]QGTFTSDFS[Orn][αMeL]LDKK([AEEA-γGlu-C18 diacid])AQ[Aib]AFIEYLLAGGPSSGAPPPSGE[AEEA]-NH2 [Example 91]”, the concentration giving a half-maximal response (EC50) on hGIPR [1] worked out at 23.9 nM; at hGcgR (setting [6]), 9.13 nM; on hGIPR [2] (setting [6]), 0.243 nM; at hGLP-1R [3], 356 nM; on hGLP-1R [4] (setting [6]), 3.39 nM; at human GcgR, 1200 nM.
Take “H-Y[Aib]QGT[αMePhe(2-F)]TSD[4Pal][αMeS]I[αMeL]LD[Orn]QAQ[αMe4Pal]EFI[dE][αMeY]LVEGGPSSGAPPPSGS-NH2 [Example 1231]”: the concentration for a half-maximal effect (EC50) was found to be 0.00994 nM at hGIPR [1]; 15.7 nM at hGcgR (setting [7]); 0.0146 nM on hGIPR [2] (setting [7]); 1.22 nM on hGLP-1R [3]; 1.23 nM at hGLP-1R [4] (setting [7]); 17.1 nM on human GcgR.
In the case of “Y[Aib]QGTFTSD[4Pal]SK[αMeL]LDKK([AEEA-γGlu-C18 diacid])AQ[Aib]AFIEYLIA[Aib]GESSGEPPPSGE-NH2 [Example 286]”, the half-maximal effective concentration (EC50) at hGIPR [1] came out at 11.5 nM; on hGcgR (setting [6]), 2.2 nM; on hGIPR [2] (setting [6]) it was 0.0845 nM; on hGLP-1R [3], 925 nM; at hGLP-1R [4] (setting [6]) it was 3.45 nM; at human GcgR it was 228 nM.
As for “H-Y[Aib]QGTFTSDYSK[αMeL]LDKK([AEEA-γGlu-C20 diacid])AQQAFIEYLLAGGPSSGEPPPSGE-NH2 [Example 344]”, the EC50 was found to be 70.7 nM on hGIPR [1]; 9.05 nM at hGcgR (setting [6]); 0.406 nM on hGIPR [2] (setting [6]); 523 nM at hGLP-1R [3]; 2.56 nM on hGLP-1R [4] (setting [6]); 1440 nM at human GcgR.
Take “H-Y[Aib]QGT[αMePhe(2-F)]TSD[4Pal]SI[αMeL]LD[Orn]K([γGlu-γGlu-C18 diacid])AQ[αMe4Pal][Orn]FI[dE][αMeY]LIEGGPSSGEPPPEAE-NH2 [Example 684]”: the EC50 on hGIPR [1] was 0.436 nM; on hGcgR it was 2.16 nM; at hGIPR [2] it was 0.00843 nM; at hGLP-1R [3], 14.2 nM; at hGLP-1R [4], 0.28 nM; on human GcgR it was 143 nM.
“H-Y[Aib]QGT[αMePhe(2-F)]TSD[4Pal][αMeS]I[αMeL]LD[Orn]K([AEEA-γGlu-C18 diacid])AQ[αMe4Pal]EFI[dE][αMeY]LIEGGPSSGEPPPTGE-NH2 [Example 1143]”: the 50% effective concentration (EC50) at hGIPR [1] worked out at 0.751 nM; on hGcgR (setting [6]), 1.42 nM; on hGIPR [2] (setting [6]), 0.0087 nM; at hGLP-1R [3] it was 49.6 nM; on hGLP-1R [4] (setting [6]) it was 0.381 nM; at human GcgR, 182 nM.
On to “H-Y[Aib]QGTFTSD[4Pal]S[Orn][αMeL]LDKK([AEEA-AEEA-γGlu-C18 diacid])AQ[αMe4Pal]AFIEYLIE[Aib]GPSSGAPPPSGS-NH2 [Example 814]”, for which the concentration for a half-maximal effect (EC50) at hGIPR [1] is 27.8 nM; at hGcgR (setting [6]), 3.92 nM; on hGIPR [2] (setting [6]) it was 0.337 nM; at hGLP-1R [3] it was 649 nM; at hGLP-1R [4] (setting [6]) it was 3.76 nM; at human GcgR it was 554 nM.

Values taken from US20240270821A1, “GIP/GLP1/GCG TRI-RECEPTOR AGONISTS AND USES THEREOF” (priority 2023, published 2024).
